Test systems include SNB-19 CNS; MDA-N; BT-549 breast; A498 renal; HL-60(TB) leukemia; COLO 205 colon; CAKI-1 renal; SNB-75 CNS; U251 CNS; OVCAR-3 ovarian; RPMI-8226 leukemia; MALME-3M melanoma.
Test in all cases: inhibition of tumour cell growth, NCI panel, 48 h

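How tested: cells in 96-well plates exposed to compound for 48 hours at five concentrations. TGI: concentration producing complete growth inhibition.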

For the compound `NNc1nnc(CCCCCCCCc2nnc(NN)n2N)n1N`, the TGI is greater than 100 µM in the experiment with SNB-19 CNS; greater than 100 µM with MDA-N; 90.3 µM with BT-549 breast; greater than 100 µM in the experiment on A498 renal; greater than 100 µM in the experiment on HL-60(TB) leukemia; greater than 100 µM in the experiment on COLO 205 colon. Besides, the TGI was greater than 100 µM with CAKI-1 renal, greater than 100 µM in the experiment with SNB-75 CNS and 49 µM in the experiment on U251 CNS.
For `CC(=O)c1ccc(Nc2c3c(nc4ccccc24)CCCC3)cc1`, the TGI with SNB-19 CNS is 99.5 µM; in the experiment on MDA-N it was 11.2 µM; in the experiment on OVCAR-3 ovarian, greater than 44.7 µM; in the experiment with BT-549 breast, greater than 41.3 µM; with A498 renal, greater than 59.7 µM; in the experiment on HL-60(TB) leukemia it was greater than 100 µM. Besides, the TGI in the experiment with COLO 205 colon is greater than 51.1 µM; in the experiment with CAKI-1 renal it was greater than 44 µM; in the experiment with RPMI-8226 leukemia, greater than 100 µM; in the experiment on SNB-75 CNS, 22.1 µM; in the experiment on U251 CNS, greater than 59.2 µM.
In the case of `O=c1[nH]c(N/N=C\C(O)C(O)C(O)C(O)CO)nc2ccccc12` (centres undefined), the TGI in the experiment on SNB-19 CNS, with MDA-N, with OVCAR-3 ovarian, in the experiment with BT-549 breast, in the experiment on A498 renal and in the experiment with HL-60(TB) leukemia was greater than 100 µM throughout. Also, the TGI with COLO 205 colon, with CAKI-1 renal, with RPMI-8226 leukemia, with SNB-75 CNS and in the experiment on U251 CNS was greater than 100 µM each time.
For the compound `Cc1cc2nc3c(C#N)c(-c4ccccc4)/c(=C\Nc4ccc(F)cc4)c(=O)n3c2cc1C`, the TGI was greater than 100 µM in the experiment with MALME-3M melanoma; 80.9 µM with SNB-19 CNS; greater than 100 µM in the experiment on MDA-N; greater than 100 µM with OVCAR-3 ovarian; greater than 100 µM in the experiment on BT-549 breast; greater than 100 µM in the experiment on A498 renal. In addition, the TGI with COLO 205 colon, in the experiment on CAKI-1 renal, in the experiment on RPMI-8226 leukemia, in the experiment on SNB-75 CNS and in the experiment on U251 CNS was greater than 100 µM each time.
On to `COC1(OC)CCc2c(sc3ncnc(Nc4cccc(Br)c4)c23)C1`, for which the TGI with MALME-3M melanoma, with SNB-19 CNS, in the experiment with MDA-N, with OVCAR-3 ovarian, with BT-549 breast and in the experiment with A498 renal was greater than 100 µM each time. Moreover, the TGI with COLO 205 colon was greater than 100 µM; with CAKI-1 renal, greater than 100 µM; with RPMI-8226 leukemia, 59.5 µM; with SNB-75 CNS, 83.2 µM; in the experiment with U251 CNS, greater than 100 µM.
Take `Cc1cc(C)c(-c2no/c(=N\S(=O)(=O)c3ccc(Cl)cc3)o2)c(C)c1`: the TGI with MALME-3M melanoma was greater than 100 µM; in the experiment with SNB-19 CNS, greater than 100 µM; with MDA-N, greater than 100 µM; in the experiment on OVCAR-3 ovarian it was greater than 100 µM; with A498 renal, greater than 100 µM; in the experiment on HL-60(TB) leukemia, 77.4 µM. Further, the TGI in the experiment on COLO 205 colon, with CAKI-1 renal, in the experiment on RPMI-8226 leukemia, in the experiment with SNB-75 CNS and with U251 CNS was greater than 100 µM in each case.
For `O=C(CCc1cc(O)cc(O)c1)NCCc1cc(O)cc(OCc2ccccc2)c1`, the TGI was greater than 100 µM in the experiment on SNB-19 CNS; greater than 100 µM in the experiment on MDA-N; greater than 100 µM with OVCAR-3 ovarian; 66.1 µM in the experiment on BT-549 breast; greater than 100 µM in the experiment with A498 renal; greater than 100 µM with COLO 205 colon. Further, the TGI was greater than 100 µM in the experiment on CAKI-1 renal, 90.5 µM with RPMI-8226 leukemia, 76.2 µM in the experiment on SNB-75 CNS and greater than 100 µM in the experiment on U251 CNS.
As to `O=S(=O)(/N=C(\NO)Nc1ccc(Cl)cc1)c1cc(C(F)(F)F)cc(C(F)(F)F)c1`, the TGI was 37.1 µM in the experiment with MALME-3M melanoma; 31.5 µM in the experiment on SNB-19 CNS; 36.1 µM in the experiment with MDA-N; 34.8 µM in the experiment with OVCAR-3 ovarian; 33.3 µM in the experiment on BT-549 breast; 79 µM in the experiment with HL-60(TB) leukemia. For the same compound, the TGI with COLO 205 colon worked out at 35.5 µM; in the experiment with CAKI-1 renal it was 32.2 µM; with SNB-75 CNS, 33.1 µM; in the experiment on U251 CNS, 31.4 µM.
For `CC(=O)NC1C(OCC(=O)NCCNc2ccc([N+](=O)[O-])c3[nH]c4ccccc4c(=O)c23)C(O)C(CO)OC1(C)OCc1ccccc1` (centres undefined), the TGI in the experiment with SNB-19 CNS, in the experiment on MDA-N, in the experiment with OVCAR-3 ovarian, with BT-549 breast, in the experiment with A498 renal and in the experiment with COLO 205 colon was greater than 100 µM in each case. Moreover, the TGI with CAKI-1 renal, in the experiment with RPMI-8226 leukemia, in the experiment with SNB-75 CNS and in the experiment on U251 CNS was greater than 100 µM each time.
For `Cn1c(CNc2ccc(-c3n[nH]c(=S)n3C)cc2)n[nH]c1=S`, the TGI with MALME-3M melanoma, in the experiment on SNB-19 CNS, in the experiment on MDA-N, with OVCAR-3 ovarian, with BT-549 breast and in the experiment on HL-60(TB) leukemia was greater than 100 µM throughout. For the same compound, the TGI with COLO 205 colon, in the experiment with CAKI-1 renal, in the experiment on SNB-75 CNS and in the experiment on U251 CNS was greater than 100 µM throughout.
As to `COC(=O)[C@@H]1[C@@H]2NC(=S)N[C@@]1(C)Oc1ccccc12`, the TGI in the experiment with MALME-3M melanoma is greater than 100 µM; in the experiment on SNB-19 CNS it was greater than 100 µM; in the experiment with MDA-N, 88.1 µM; in the experiment with OVCAR-3 ovarian, greater than 100 µM; in the experiment with BT-549 breast it was greater than 100 µM; in the experiment on A498 renal, greater than 100 µM. The TGI in the experiment with COLO 205 colon, in the experiment on CAKI-1 renal, with RPMI-8226 leukemia, with SNB-75 CNS and in the experiment with U251 CNS was greater than 100 µM in each case.
In the case of `CCOC(=O)c1cn(CC)c(=O)n2c1nc1ccccc12`, the TGI in the experiment on SNB-19 CNS, in the experiment on MDA-N, in the experiment with OVCAR-3 ovarian, with BT-549 breast, in the experiment with A498 renal and in the experiment with COLO 205 colon was greater than 100 µM in each case. The TGI is greater than 100 µM in the experiment on CAKI-1 renal, 75.1 µM in the experiment on RPMI-8226 leukemia, greater than 100 µM with SNB-75 CNS and greater than 100 µM in the experiment on U251 CNS.
Regarding `Cc1cc(O)c(/C=N/C(N)=S)c(=O)o1`, the TGI is greater than 100 µM with SNB-19 CNS; greater than 100 µM in the experiment on MDA-N; greater than 100 µM in the experiment with OVCAR-3 ovarian; greater than 100 µM in the experiment on BT-549 breast; 41.2 µM in the experiment on HL-60(TB) leukemia; greater than 100 µM in the experiment on COLO 205 colon. For the same compound, the TGI with CAKI-1 renal, in the experiment with SNB-75 CNS and with U251 CNS was greater than 100 µM throughout.
